Laboratory results as given in patent publication US10745382B2 (BRISTOL-MYERS SQUIBB COMPANY, priority 2015, dated 2020).
Where two headings read alike, the source gives them in different places.

Target: T1, PD-1/PD-L1 (Homo sapiens, UniProt Q9NZQ7)
T1 construct: made in house; host or cells: HEK293T
Assay: PD-1/PD-L1 Homogenous Time-Resolved Fluorescence (HTRF) binding assay
Conditions: PD-L1-His 10 nM, PD-1-Ig 20 nM, read-out: Range or IC50
Procedure, shortened: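 dPBS + 0.1% BSA + 0.05% Tween-20 buffer; Eu-cryptate anti-Ig 1 nM final, APC anti-His 20 nM final; HTRF read. Counter-assays: PD-1-Ig/PD-L2-His 20 & 5 nM, CD80-His/PD-L1-Ig 100 & 10 nM.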

T1 sequence (Q9NZQ7 with tags, fused parts or gaps): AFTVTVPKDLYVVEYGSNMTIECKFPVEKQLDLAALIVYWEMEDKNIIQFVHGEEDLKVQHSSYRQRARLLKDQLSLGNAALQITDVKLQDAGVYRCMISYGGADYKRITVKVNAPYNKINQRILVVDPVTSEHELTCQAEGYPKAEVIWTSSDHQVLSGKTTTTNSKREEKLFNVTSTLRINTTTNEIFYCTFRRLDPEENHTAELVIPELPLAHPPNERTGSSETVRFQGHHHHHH

| SMILES | IC50 (value given as range class) | IC50 (numeric IC50) |
| --- | --- | --- |
| Cc1c(COc2cc(OCc3cncc(C#N)c3)c(CN3CC(=O)NC(=O)C3)cc2Cl)cccc1-c1cccc(OCCCN2CC[C@@H](O)C2)c1C [Example 2329, (R)-5-((4-chloro-2-((3,5-dioxopiperazin-1-yl)methyl)-5-((3′-(3-(3-hydroxypyrrolidin-1-yl)propoxy)-2,2′-dimethyl-[1,1′-biphenyl]-3-yl)methoxy)phenoxy)methyl)nicotinonitrile] | 0.21 to 10 nM |  |
| Cc1c(COc2cc(OCc3cncc(C#N)c3)c(CN3CCN(C)C(=O)C3)cc2Cl)cccc1-c1cccc(OCCCN2CC[C@@H](O)C2)c1C [Example 2330, (R)-5-((4-chloro-5-((3′-(3-(3-hydroxypyrrolidin-1-yl)propoxy)-2,2′-dimethyl-[1,1′-biphenyl]-3-yl)methoxy)-2-((4-methyl-3-oxopiperazin-1-yl)methyl)phenoxy)methyl)nicotinonitrile] | 0.21 to 10 nM |  |
| Cc1c(COc2cc(OCc3cncc(C#N)c3)c(CN3CCNC(=O)C3)cc2Cl)cccc1-c1cccc(OCCCN2CC[C@@H](O)C2)c1C [Example 2331, (R)-5-((4-chloro-5-((3′-(3-(3-hydroxypyrrolidin-1-yl)propoxy)-2,2′-dimethyl-[1,1′-biphenyl]-3-yl)methoxy)-2-((3-oxopiperazin-1-yl)methyl)phenoxy)methyl)nicotinonitrile] | 0.21 to 10 nM |  |
| Cc1c(COc2cc(OCc3cncc(C#N)c3)c(CN3CCCC[C@H]3C(=O)O)cc2Cl)cccc1-c1cccc(OCCCN(C)C[C@H](O)CO)c1C [Example 2332, (S)-1-(5-chloro-2-((5-cyanopyridin-3-yl)methoxy)-4-((3′-(3-(((S)-2,3-dihydroxypropyl)(methyl)amino)propoxy)-2,2′-dimethyl-[1,1′-biphenyl]-3-yl)methoxy)benzyl)piperidine-2-carboxylic Acid] | 0.21 to 10 nM |  |
| Cc1c(COc2cc(OCc3cncc(C#N)c3)c(CN3CCCC[C@H]3C(=O)O)cc2Cl)cccc1-c1cccc(OCCCNC[C@H](O)CO)c1C [Example 2333, (S)-1-(5-chloro-2-((5-cyanopyridin-3-yl)methoxy)-4-((3′-(3-(((S)-2,3-dihydroxypropyl)amino)propoxy)-2,2′-dimethyl-[1,1′-biphenyl]-3-yl)methoxy)benzyl)piperidine-2-carboxylic Acid] |  | 0.9 nM |
| Cc1c(COc2cc(OCc3cncc(C#N)c3)c(CN3CCCCC3CO)cc2Cl)cccc1-c1cccc(OCCCN2CC[C@@H](O)C2)c1C (stereo partly drawn) [Example 2334, 5-((4-chloro-2-((2-(hydroxymethyl)piperidin-1-yl)methyl)-5-((3′-(3-((R)-3-hydroxypyrrolidin-1-yl)propoxy)-2,2′-dimethyl-[1,1′-biphenyl]-3-yl)methoxy)phenoxy)methyl)nicotinonitrile] | 0.21 to 10 nM |  |
| Cc1c(COc2cc(OCc3cncc(C#N)c3)c(CNC(CO)CO)cc2Cl)cccc1-c1cccc(NC(=O)c2ncccc2CO)c1C [Example 2340, N-(3′-((2-chloro-5-((5-cyanopyridin-3-yl)methoxy)-4-(((1,3-dihydroxypropan-2-yl)amino)methyl)phenoxy)methyl)-2,2′-dimethyl-[1,1′-biphenyl]-3-yl)-3-(hydroxymethyl)picolinamide] | 10 to 100 nM |  |
| Cc1c(COc2cc(OCc3cncc(C#N)c3)c(CN[C@](C)(CO)C(=O)O)cc2Cl)cccc1-c1cccc(OCC2(CN3CC[C@@H](O)C3)CC2)c1C [Example 2341, (R)-2-((5-chloro-2-((5-cyanopyridin-3-yl)methoxy)-4-((3′-((1-(((R)-3-hydroxypyrrolidin-1-yl)methyl)cyclopropyl)methoxy)-2,2′-dimethyl-[1,1′-biphenyl]-3-yl)methoxy)benzyl)amino)-3-hydroxy-2-methylpropanoic Acid] | 0.21 to 10 nM |  |
| Cc1c(COc2cc(OCc3cncc(C#N)c3)c(CNC(CO)CO)cc2Cl)cccc1-c1cccc(OCC2(CN3CC[C@@H](O)C3)CC2)c1C [Example 2342, (R)-5-((4-chloro-2-(((1,3-dihydroxypropan-2-yl)amino)methyl)-5-((3′-((1-((3-hydroxypyrrolidin-1-yl)methyl)cyclopropyl)methoxy)-2,2′-dimethyl-[1,1′-biphenyl]-3-yl)methoxy)phenoxy)methyl)nicotinonitrile] | 0.21 to 10 nM |  |
| Cc1c(COc2cc(OCc3cncc(C#N)c3)c(CN3CCCC[C@H]3C(=O)O)cc2Cl)cccc1-c1cccc(OCC2(CN3CC[C@@H](O)C3)CC2)c1C [Example 2346, (S)-1-(5-chloro-2-((5-cyanopyridin-3-yl)methoxy)-4-((3′-((1-(((R)-3-hydroxypyrrolidin-1-yl)methyl)cyclopropyl)methoxy)-2,2′-dimethyl-[1,1′-biphenyl]-3-yl)methoxy)benzyl)piperidine-2-carboxylic Acid] | 0.21 to 10 nM |  |
| Cc1c(COc2cc(OCc3cncc(C#N)c3)c(CNC(CO)CO)cc2Cl)cccc1-c1cccc(NC(=O)CNC2CC2)c1C [Example 2347, N-(3′-((2-chloro-5-((5-cyanopyridin-3-yl)methoxy)-4-(((1,3-dihydroxypropan-2-yl)amino)methyl)phenoxy)methyl)-2,2′-dimethyl-[1,1′-biphenyl]-3-yl)-2-(cyclopropylamino)acetamide] | 0.21 to 10 nM |  |
| Cc1c(COc2cc(OCc3cncc(C#N)c3)c(CN[C@@](C)(CO)C(=O)O)cc2Cl)cccc1-c1cccc(OCC2(CN3CC[C@@H](O)C3)CC2)c1C [Example 2348, (S)-2-((5-chloro-2-((5-cyanopyridin-3-yl)methoxy)-4-((3′-((1-(((R)-3-hydroxypyrrolidin-1-yl)methyl)cyclopropyl)methoxy)-2,2′-dimethyl-[1,1′-biphenyl]-3-yl)methoxy)benzyl)amino)-3-hydroxy-2-methylpropanoic Acid] | 0.21 to 10 nM |  |
| Cc1cc(C(=O)N2CCOCC2)ccc1-c1cccc(COc2cc(OCc3cncc(C#N)c3)c(CNC(CO)CO)cc2Cl)c1C [Example 2349, 5-((4-chloro-2-(((1,3-dihydroxypropan-2-yl)amino)methyl)-5-((2,2′-dimethyl-4′-(morpholine-4-carbonyl)-[1,1′-biphenyl]-3-yl)methoxy)phenoxy)methyl)nicotinonitrile] | 10 to 100 nM |  |
| Cc1c(COc2cc(OCc3cncc(C#N)c3)c(CNC(CO)CO)cc2Cl)cccc1-c1cccc(Nc2cc(N3CCOCC3)ncn2)c1C [Example 2350, 5-((4-chloro-2-(((1,3-dihydroxypropan-2-yl)amino)methyl)-5-((2,2′-dimethyl-3′-((6-morpholinopyrimidin-4-yl)amino)-[1,1′-biphenyl]-3-yl)methoxy)phenoxy)methyl)nicotinonitrile] | 0.21 to 10 nM |  |
| Cc1c(COc2cc(OCc3cncc(C#N)c3)c(CNC(CO)CO)cc2Cl)cccc1-c1cccc(Oc2cccc3c2CCNC3=O)c1C [Example 2354, 5-((4-chloro-2-(((1,3-dihydroxypropan-2-yl)amino)methyl)-5-((2,2′-dimethyl-3′-((1-oxo-1,2,3,4-tetrahydroisoquinolin-5-yl)oxy)-[1,1′-biphenyl]-3-yl)methoxy)phenoxy)methyl)nicotinonitrile] | 10 to 100 nM |  |
| Cc1c(COc2cc(OCc3cncc(C#N)c3)c(CN3CCCC[C@H]3C(=O)O)cc2Cl)cccc1-c1cccc(OCCCN2CCC(C(=O)O)CC2)c1C [Example 2364, (S)-1-(4-((3′-(3-(4-carboxypiperidin-1-yl)propoxy)-2,2′-dimethyl-[1,1′-biphenyl]-3-yl)methoxy)-5-chloro-2-((5-cyanopyridin-3-yl)methoxy)benzyl)piperidine-2-carboxylic Acid] | 0.21 to 10 nM |  |
